Results reported in article PMC3871595, “Structure Based Identification and Characterization of Flavonoids That Disrupt Human Papillomavirus-16 E6 Function” (PLoS ONE, 2013).
“Also recorded” adds a separate entry of the source. Like-named read-outs stand apart in the source and are kept apart here.

Key:
[1] = test system: RPE-1, HeLa, C33a and HaCat cells; assay: SA-beta-gal senescence assay in other cell lines; format: cell-based, human; details: 72 hours
Method: This was specific to Caski cells and was not observed in RPE-1, HeLa cells, or the HPV negative control cell lines C33a and HaCat (Figures S2A,B ). […] As observed in the viability assay, this occurred in both the HPV positive and negative cell lines. […] These cell lines were also assayed for apoptosis.
12,000 cells per cm^2 were plated in 24-well dishes; after 24 hours, fresh media and compound were added. SA-beta gal staining was performed as described. Images were collected using bright field microscopy. At least four fields (~100 cells per field) were read for each treatment, and experiments were repeated 3 times. The percent SA-beta-gal positive cells was calculated for each data point.

[2] = test system: HPV-18 positive HeLa cells; assay: cell viability (MTS, Celltiter 96 AQueous) HeLa; format: cell-based, human; details: 48 to 96 hours, relative to DMSO
Method: HPV-18 positive HeLa cells and two additional control cell lines, C33a, a cell line derived from an HPV-negative human cervical cancer isolate, and HaCat, a spontaneously immortalized human keratinocyte cell line, were used to assess compounds for their impact on cell growth and viability. All cells were incubated for 48 to 96 hours with increasing doses of compound. Cell viability was measured by MTS based assay and % viability quantified relative to cells treated with DMSO. […] This is in agreement with the lack of specificity for HPV-dependent cells observed in the p53 western results.
For cell viability, 12,000 cells per cm^2 were plated in 96-well dishes 24 hours prior to drug addition. Fresh media and compound were added. Plates were read after 72-96 hours. Relative cell viability was assayed as directed in the Celltiter 96 AQueous one solution assay (Promega). For caspase activity, plates were assayed after 4, 8, 12, 24, or 48 hours as described for the Caspase-Glo 3/7 assay (Promega).

[3] = molecular target: T1, interaction between HPV-16 E6 and E6AP (Human papillomavirus type 16, UniProt P03126); assay: biochemical; format: binding; details: for Emax: read-out: Maximal Inhibition
T1 construct: made in house; host or cells: E. coli BL21
Method: To characterize potential E6 inhibitors, a robust in vitro assay was developed to measure the interaction between HPV-16 E6 and E6AP. […] The core 70 amino acids of the E6 binding region of E6AP (residues 371-440) was fused to bacterial alkaline phosphatase (BAP) in the MY101 vector [40]. […] Binding efficiency was determined from the intensity of BAP activated chemiluminescence remaining in each well.
Kinetic analysis was performed to characterize the protein-protein interaction inherent in this assay.
The collection of 72 available structural-lead compounds was tested in the filter-plate based in vitro E6-E6AP binding assay. […] Compounds that disrupted the Flag-BAP interaction with the same potency as the HPV-16 E6 and E6AP interaction were classified as non-specific and eliminated from further analysis. […]
Pre-Block - 96-well filter plates were prepared (0.2 µm BioTrace NT, Pall). 100µL of blocking buffer (100 mM Tris pH 8.0, 100 mM NaCl, 0.1% milk) was added per well. Plates were blocked for 1 hr at RT on an orbital shaker. Buffer was removed by vacuum filtration using a vacuum manifold. GST-E6 Bead addition – GST-E6 beads were prepared at 5µg/mL in GST-E6 bead buffer (100 mM Tris pH 8.0, 100 mM NaCl, 0.1% milk, 2.5 mM DTT). 100µL of GST-E6 bead mix was added per well and incubated for 1 hr at 4°C. Buffer was removed by vacuum filtration. […] 48 µL of each reagent was added per well. For drug assay, 2µL of compound was added to each well and mixed thoroughly. […] Plates were incubated for 1-3 hours at RT on an orbital shaker. Buffer was removed by vacuum filtration. Plates were washed on the vacuum manifold, first with 200 µL buffer (100 mM Tris pH 8.0, 100 mM NaCl, 1 mM DTT), and twice more with 100µL lysis buffer without DTT. Plates were cleared and dried with on the vacuum manifold. Assay – Immunostar assay reagent was prepared and equilibrated to RT prior to addition. 60 µL of Immunostar-AP assay reagent was added, the BAP activity was allowed to develop for 10 minutes and the plates were read on a Wallace Luminometer. BAP activity was measured as relative light units (RLU) on a luminometer using the Immunostar-AP substrate (BioRad).

[4] = test system: E6/E7 HFKs; assay: cell viability (MTS, Celltiter 96 AQueous) E6/E7 HFKs; format: cell-based, human; details: 48 to 96 hours, relative to DMSO
[5] = solubility in aqueous SPR buffers; format: physicochemical; details: for aqueous solubility (in words): simple aqueous solution
[6] = test system: Caski, HeLa, RPE-1, C33a and HaCat cells; assay: cell number and morphology (bright field microscopy); format: cell-based, human; details: 72 hours
[7] = test system: RPE-1 cells; assay: p53/p21 immunoblot analysis in RPE-1 cells; format: cell-based, human; details: RPE-1 (HPV negative), 40 hours
Method: Caski cells, which are derived from an HPV-16 infected cervical carcinoma and express HPV-16 E6 and E7, were used to determine whether these compounds interfere with HPV-16 E6 function. Inhibition of E6 should block its ability to promote the degradation of p53 thereby increasing the levels of p53. […] These compounds were also assayed in telomerase immortalized human retinal epithelial cells (RPE-1). […] If the elevation in p53 is dependent on the inhibition of E6 by these compounds, p53 should not increase in the RPE-1 cells.
20,000 cells per cm^2 were plated in 6-well dishes. Cells were incubated for 24 hours at which time fresh media and compound were added. After 40 hours, cells were harvested, washed with cold PBS, and lysed in RIPA buffer with protease inhibitor. Each sample was separated on a 12% SDS-page gel, transferred to Immobilon-P membrane (Millipore) and blotted for the p53 (DO-1, Santa Cruz), p21 (c-19, Santa Cruz), and actin (A2066, Sigma). Protein quantification was performed with the Fujifilm LAS-4000 Multifunctional Imaging System. The signal intensity was measured for each band on an immunoblot, normalized to the loading control, and the fold increase was determined in relation to the appropriate DMSO treated control. RNA was isolated from these cells using Trizol Reagent (Invitrogen 15596-026). cDNA was generated using the Improm-II Reverse Transcription System (Promega A3801). qPCR was performed as described in the protocol for SsoFast EvaGreen supermix (BioRad 172-5023) using an BioRad CFX96 real-time PCR machine. Melting curves for each reaction were obtained. Each sample was assayed in triplicate and every plate contained a 5-point cDNA dilution course to calculate amplification efficiency for each primer pair. The Pfaffl method was used to determine the change in transcript levels relative to the DMSO and normalized to GAPDH.

[8] = full 7-point dose response, 0.5 µM to 333 µM, quadruplicate

T1 sequence (P03126 whole entry): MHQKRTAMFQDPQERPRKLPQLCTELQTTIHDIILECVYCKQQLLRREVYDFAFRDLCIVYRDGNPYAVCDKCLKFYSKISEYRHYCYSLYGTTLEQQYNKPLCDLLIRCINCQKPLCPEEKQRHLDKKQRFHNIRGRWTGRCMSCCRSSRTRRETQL

Row | Structure (SMILES) | SA-β-gal staining [1] | cell growth and viability [2] | IC50 [3] [µM] | inhibition of the interaction between E6 and E6AP ([3]; full 7-point binding assay, maximum) | IC50 [3, 8] | Emax [3] [%] | cell growth and viability [4] | solubility ([5]; aqueous SPR buffers, read-out: concentration soluble in the appropriate buffers) [µM] | aqueous solubility (in words) [5] | number of cells per well [6] | p53 protein levels [7] | cell morphology ([6]; luteolin @ 50µM) | p21 protein levels [7]
1 | O=c1cc(-c2ccc(O)c(O)c2)oc2cc(O)cc(O)c12 [luteolin, reference compound] | no significant increase in β-gal staining | potent inhibitor of Caski, E6/E7 HFKs, and HeLa growth | 4.3 | up to 100% | low micromolar IC50 values | 99 | potent inhibitor of Caski, E6/E7 HFKs, and HeLa growth | < 20 | poor solubility | dramatic decrease in the number of cells per well | increase in p53 protein levels, but only at concentrations higher than was required to increase p53 and p21 levels in the Caski cells | – | –
2 | COc1cccc(-c2cc(=O)c3cc(-c4nnn[nH]4)ccc3o2)c1 [CAF-24] | not observed | selectively inhibited growth | 2.8 | – | low micromolar IC50 values | 95 | selectively inhibited growth | – | poor solubility; also recorded: limited aqueous solubility | decreased Caski and HeLa cell numbers | did not induce increased levels of p53 or p21 proteins | no change in cell morphology | did not induce increased levels of p53 or p21 proteins
